For series [1], the target named is T1, NOD1 (Homo sapiens, UniProt Q9Y239).
T1 sequence (Q9Y239 1-953): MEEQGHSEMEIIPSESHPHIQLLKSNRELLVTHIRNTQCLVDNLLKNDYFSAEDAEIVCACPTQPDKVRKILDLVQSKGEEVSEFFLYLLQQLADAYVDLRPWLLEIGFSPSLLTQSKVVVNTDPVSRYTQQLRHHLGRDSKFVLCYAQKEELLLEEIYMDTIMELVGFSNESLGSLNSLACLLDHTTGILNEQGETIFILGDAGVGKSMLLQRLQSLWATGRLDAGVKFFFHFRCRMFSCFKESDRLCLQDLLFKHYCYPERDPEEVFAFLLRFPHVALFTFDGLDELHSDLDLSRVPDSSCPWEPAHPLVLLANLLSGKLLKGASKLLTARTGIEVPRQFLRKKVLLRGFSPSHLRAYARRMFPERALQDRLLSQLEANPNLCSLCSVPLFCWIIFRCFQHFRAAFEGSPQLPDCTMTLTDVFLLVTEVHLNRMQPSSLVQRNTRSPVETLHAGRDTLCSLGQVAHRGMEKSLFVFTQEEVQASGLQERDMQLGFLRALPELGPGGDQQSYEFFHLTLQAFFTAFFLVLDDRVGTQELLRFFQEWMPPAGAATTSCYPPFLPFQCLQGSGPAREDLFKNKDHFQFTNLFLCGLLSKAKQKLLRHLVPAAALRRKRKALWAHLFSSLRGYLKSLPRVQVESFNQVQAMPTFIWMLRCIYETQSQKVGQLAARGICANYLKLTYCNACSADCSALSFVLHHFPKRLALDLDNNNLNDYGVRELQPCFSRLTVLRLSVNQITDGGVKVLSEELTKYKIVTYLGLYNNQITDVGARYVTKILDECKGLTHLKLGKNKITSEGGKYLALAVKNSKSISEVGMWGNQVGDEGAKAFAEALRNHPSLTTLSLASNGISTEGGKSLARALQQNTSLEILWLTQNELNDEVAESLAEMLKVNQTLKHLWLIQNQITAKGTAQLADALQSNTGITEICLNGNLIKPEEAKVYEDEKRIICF
Description: Microscale thermophoresis (MST) binding to purified NOD1-GFP. As to conditions: read-out: Kd value of ADP alone with NOD1. As for the experimental part:
(§1) The lysates were incubated with 2 ml GFP‐Trap agarose at 4°C for 4 h. The agarose was collected with Poly‐Prep columns by gravity flow. […] To remove heat shock proteins, columns were further washed with 50 ml wash buffer III (50 mM Tris–HCl, pH 7.5, 150 mM NaCl, 5 mM MgCl2+, 1 mM ATP). To elute the proteins, the agarose was mixed with 2 ml elution buffer (100 mM Glycine, pH 2.5) for 1 min and the eluted proteins were immediately neutralized with 0.2 ml of 1 M Tris, pH 10.5.
A general note: In MST a laser heats a spot of the sample, and binding alters the fluorescence response.

Series [2] concerns the target NOD2 (Homo sapiens, UniProt Q9HC29). Kind of series: Microscale thermophoresis (MST) binding to purified NOD2-GFP. As to conditions: read-out: Kd value of ADP alone with NOD2. As for the experimental part: as §1
Series [3] relates to NOD1. The arrangement: method as in Askari et al, 2012. The conditions noted are these: quoted by referee; ref Askari et al, 2012; read-out: NOD1 affinity, IC50; cited from earlier work.
Series [4] concerns THP‐1 cells, BMDMs, and human CD14+ monocytes. Description: IL6 expression and production upon tunicamycin-induced ER stress with sphingolipid pathway inhibitors. The format is cell-based. The conditions noted are these: inhibitor pretreatment, tunicamycin 5 µg/ml; all types of cells. As for the experimental part: (§2) The human monocytic cell line THP‐1 was obtained from the American Type Culture Collection (ATCC, TIB‐202) and maintained in RPMI 1640 (Gibco, 31870) with 10% (v:v) heat‐inactivated fetal bovine serum (FBS, Sigma‐Aldrich, F0804), 1 mM sodium pyruvate (Gibco, 11360070), 2 mM L‐glutamine (Gibco, 25030081), 10 mM HEPES buffer (Gibco, 15630080), pH 7.2‐7.5, and 50 µM 2‐mercaptoethanol (Gibco, 31350010). To differentiate THP‐1 into macrophage‐like cells, THP‐1 cells were stimulated with 50 ng/ml phorbol 12‐myristate 13‐acetate (Sigma‐Aldrich, P8139) for 24 h and then incubated with fresh medium for another 48 h. HEK293T WT and HEK293T NOD1/2 dKO cells were generated as described (Dagil et al, 2016). […]
(§3) Total RNA was isolated with TRIzol reagent, as described by the manufacturer (Invitrogen). […] Gene expression was normalized to glyceraldehyde‐3‐phosphate dehydrogenase (GAPDH), and fold changes were calculated against corresponding controls. qRT–PCR data were representative of at least three independent experiments, with at least 2 technical replicates per experiment. […]

Series [5] deals with THP‐1 cells. Description: IL6 expression and production in THP-1 cells upon ER stress (de novo vs hydrolysis pathway inhibitors). Format: cell-based, human. As to conditions: THP-1, tunicamycin 5 µg/ml, Appendix Fig S2. The method, then: The human monocytic cell line THP‐1 was obtained from the American Type Culture Collection (ATCC, TIB‐202) and maintained in RPMI 1640 (Gibco, 31870) with 10% (v:v) heat‐inactivated fetal bovine serum (FBS, Sigma‐Aldrich, F0804), 1 mM sodium pyruvate (Gibco, 11360070), 2 mM L‐glutamine (Gibco, 25030081), 10 mM HEPES buffer (Gibco, 15630080), pH 7.2‐7.5, and 50 µM 2‐mercaptoethanol (Gibco, 31350010). To differentiate THP‐1 into macrophage‐like cells, THP‐1 cells were stimulated with 50 ng/ml phorbol 12‐myristate 13‐acetate (Sigma‐Aldrich, P8139) for 24 h and then incubated with fresh medium for another 48 h. HEK293T WT and HEK293T NOD1/2 dKO cells were generated as described (Dagil et al, 2016). HeLa inducible NOD1‐GFP and NOD2‐GFP cells were generated by co‐transfection of pcDNA5/FRT/TO‐EGFP‐NOD1 or pcDNA5/FRT/TO‐EGFP‐NOD2 (Addgene #131206 and #131207) together with pOG44 in a 9:1 ratio into HeLa FlpIN T‐REx cells (kindly provided by the Hentze Lab, EMBL, Heidelberg) using Lipofectamine 2000 (Thermo Fisher Scientific) and selected with 10 µg/ml blasticidin and 500 µg/ml hygromycin B. HeLa inducible NOD1‐GFP and NOD2‐GFP cells, human neonatal dermal fibroblasts, and HEK293T cells (DSMZ, ACC305) were maintained in complete Dulbecco’s modified Eagle’s medium (DMEM) 4.5 g/l glucose (Gibco, 10938) with 10% (v:v) heat‐inactivated FBS, 1 mM sodium pyruvate, and 2 mM L‐glutamine. To induce NOD1 or NOD2 expression, HeLa NOD1 or NOD2 cells were treated with 0.5 µg/ml or 0.25 µg/ml doxycycline for at least 16 h, respectively. All cells have been checked for mycoplasma contamination regularly. […]
as §3

Series [6] relates to HDFs and HeLa inducible NOD1 or NOD2 cells. Description: IL6 expression and production in response to various stressors with sphingosine kinase inhibition. Format: cell-based, human. The conditions noted are these: SPHKi 50 µM (Fig 3D-G). The method, then: as §2, §3
Series [7] concerns human dermal fibroblasts (HDFs). Description: S1P quantification by ELISA in cell lysates. The format is cell-based. As to conditions: primary fibroblasts, Fig 3C. As for the experimental part: Human neonatal dermal fibroblasts were grown in DMEM full medium. For each condition, 2x T75 flask cells were required. After 4‐h stimulation with various stressors, cells were washed with PBS and collected in lysis buffer (20 mM PIPES PH7.4, 150 mM NaCl, 1 mM EGTA, 1% v/v Triton X‐100, 1.5 mM MgCl2, 0.1% SDS, 1X PhosSTOP, 1X Protease inhibitor cocktail without EDTA). Protein concentration was measured by BCA assay kit (Thermo Fisher) and diluted with delipidized serum to 1 µg/µl. Then, the diluted samples were added into S1P ELISA plates according to the instructions.

Series [8] concerns BMDMs and fibroblasts. Description: Cell death upon stressor treatment. Format: cell-based. The conditions noted are these: same concentration. As for the experimental part: Cell viability assays were performed with CellTiter 96 AQueous one solution reagent (Promega) according to the manufacturer’s instructions. Cell viability upon various stimulations was normalized to corresponding controls.

Sequence of NOD2 (Q9HC29 whole entry): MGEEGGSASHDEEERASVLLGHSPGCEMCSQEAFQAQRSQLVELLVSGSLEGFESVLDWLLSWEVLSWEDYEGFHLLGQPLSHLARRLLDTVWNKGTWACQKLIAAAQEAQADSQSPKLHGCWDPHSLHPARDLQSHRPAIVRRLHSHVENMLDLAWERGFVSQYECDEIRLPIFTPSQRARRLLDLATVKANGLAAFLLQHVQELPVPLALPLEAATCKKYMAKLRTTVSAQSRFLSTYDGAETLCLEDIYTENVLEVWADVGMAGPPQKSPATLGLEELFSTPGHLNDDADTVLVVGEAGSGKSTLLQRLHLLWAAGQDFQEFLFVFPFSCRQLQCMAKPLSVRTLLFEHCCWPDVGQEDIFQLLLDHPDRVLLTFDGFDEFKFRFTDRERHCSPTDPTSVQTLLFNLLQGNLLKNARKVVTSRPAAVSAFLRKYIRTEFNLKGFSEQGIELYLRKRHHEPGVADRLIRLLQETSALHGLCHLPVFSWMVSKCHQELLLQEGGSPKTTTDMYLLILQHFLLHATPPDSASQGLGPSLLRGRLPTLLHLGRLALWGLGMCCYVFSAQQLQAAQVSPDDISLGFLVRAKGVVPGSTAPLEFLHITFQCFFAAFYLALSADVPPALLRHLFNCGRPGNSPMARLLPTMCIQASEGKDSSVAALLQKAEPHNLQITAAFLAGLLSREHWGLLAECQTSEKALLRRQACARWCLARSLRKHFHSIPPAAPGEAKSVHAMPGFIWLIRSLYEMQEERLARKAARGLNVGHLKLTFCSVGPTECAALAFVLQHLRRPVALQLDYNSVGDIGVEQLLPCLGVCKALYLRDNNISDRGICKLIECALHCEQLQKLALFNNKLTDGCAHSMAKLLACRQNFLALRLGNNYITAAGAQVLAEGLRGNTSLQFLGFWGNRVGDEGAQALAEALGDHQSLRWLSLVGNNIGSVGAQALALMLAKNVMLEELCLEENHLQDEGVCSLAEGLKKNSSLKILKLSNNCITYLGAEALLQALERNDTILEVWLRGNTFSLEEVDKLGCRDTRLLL

The Kd is the equilibrium constant for the complex coming apart. As a reminder, the IC50 is the concentration that gives 50% inhibition. Take `Nc1ncnc2c1ncn2[C@@H]1O[C@H](COP(=O)(O)OP(=O)(O)O)[C@@H](O)[C@H]1O` [ADP]: the values for the Kd in series [1] and in series [2] were around 100 nM and around 150 nM, respectively. In addition, in series [3], the half-inhibitory concentration (IC50) was around 190 nM.
On to `COc1ccc(/C=C/C(=O)c2c(-c3ccccc3)c3ccccc3[nH]c2=O)cc1` [ceranib‐2], for which, in series [4], the “IL6 expression and production upon tunicamycin-induced ER stress” value is given as “abolished”.
Take `N[C@H]1CON=C1O` [L‐cycloserine]: in series [5], the “IL6 expression and production upon ER stress” value is recorded as “not”.
For the molecule `Oc1ccc(Nc2nc(-c3ccc(Cl)cc3)cs2)cc1` [SKI‐II], the “IL6 expression and production upon tunicamycin-induced ER stress” value in series [4] was “abolished”. The “IL6 expression and production in response to various stressors” value in series [6] is recorded as “markedly diminished”.
In the case of `CN(C)CCCN1c2ccccc2CCc2ccccc21` [imipramine], in series [5], the “IL6 expression and production upon ER stress” value was “abrogated”.
`Nc1ncnc2c1ncn2[C@@H]1O[C@H](COP(=O)(O)OP(=O)(O)OP(=O)(O)O)[C@@H](O)[C@H]1O` [ATP]: the half-maximal inhibitory concentration (IC50) in series [3] was around 15 nM.
As for `O=C(/C=C/c1ccc(/C=C/C(=O)Nc2ccc(C3=NCCN3)cc2)cc1)Nc1ccc(C2=NCCN2)cc1` [GW4869], the “IL6 expression and production upon ER stress” value in series [5] is “not”.
For `C[C@@H]1C[C@@H]([C@H](O)CC2CC(=O)NC(=O)C2)C(=O)[C@@H](C)C1` [CHX, cycloheximide], the “Level of S1P in fibroblasts upon stressor” value in series [7] is given as “highest level of S1P in fibroblasts”. Besides, in series [8], the “Cell death in BMDMs compared with fibroblasts” value is on record as “higher”.
